{Fluor} = fluorophore: 5-carboxyfluorescein (FAM) or Alexa Fluor 488
Key:
[1] = tested on: cancer cells (DU145, HeLa, MDA-MB-231) and non-malignant Hs27 skin fibroblasts; assay: Temperature-dependence of oligonucleotide uptake by flow cytometry; format: cell-based; settings: 10 μM, 37° C. or 4° C. for 2 h, all cell types
Procedure: FIG. 1 are graphs showing that AS1411 cell internalization is an active process. Cells were plated 18 h before uptake analysis. After incubation as described, cells were washed with ice-cold PBS, incubated with 1 μg/ml 7-AAD, harvested and resuspended in 1% paraformaldehyde containing 2 μg/ml actinomycin D, then analyzed by flow cytometry. (Panel A) DU145 cells were incubated at 37° C. with fresh complete DMEM medium containing 10 μM FL-AS1411 (black line) or 10 μM FL-CRO (gray line) for the time indicated. (Panel B) DU145 cells were incubated for 2 h at 37° C. in complete or serum-free DMEM medium containing 10 μM FL-AS1411, or 10 μM FL-CRO, or no oligonucleotide. (Panel C) Various cell lines were incubated with 10 μM FL-AS1411 (black outline histogram), 10 μM FL-CRO (gray outline histogram) or without DNA (solid gray histogram) at 37° C. or 4° C. for 2 h. All experiments were repeated at least three times. Data are mean of three independent samples; bars, SE; *(p<0.05). […]
To determine whether AS1411 uptake occurs through an active uptake process, the temperature-dependence of AS1411 uptake in cancer cells (DU145, HeLa, MDA-MB-231) and non-malignant Hs27 skin fibroblasts was evaluated using flow cytometry. […]

[2] = tested on: Hs27; assay: Cell response to AS1411; format: cell-based, human; settings: Non-cancer, skin fibroblasts
Source text: (§1) It has recently been discovered that AS1411 can stimulate macropinocytosis (MP) in cancer cells and this finding was verified by several different methods and in multiple cancer cell lines (Table 1).

[3] = tested on: MCF10A; assay: Cell response to AS1411; format: cell-based, human; settings: Non-cancer, breast epithelial
Source text: as §1

[4] = tested on: MCF10A; assay: Stimulation of macropinocytosis (dextran uptake); format: cell-based, human; settings: MCF10A; Non-cancer, breast epithelial
Procedure: FIG. 10 are graphs showing the stimulation of macropinocytosis by GROs. Breast carcinoma cells (MDA-MB-231, MCF-7) or non-malignant breast epithelial cells (MCF10A) cells were plated 18 hr before treatment with 10 μM tAS1411 or 10 μM tCRO or water in complete DMEM medium at 37° C. for 48 hr or 72 hr. After treatment, cell medium was changed for fresh complete medium containing 0.2 mg/ml dextran-10K labeled with Alexa Fluor 488 and cells were incubated for 30 min at 37° C. Cells were then incubated on ice with 1 mg/ml PI in PBS, harvested, and analyzed by flow cytometry. Uptake was normalized to no pre-treatment controls and bars show the mean and SE of three independent experiments. […]
AS1411 causes a change in cancer cell morphology that is characterized by vacuolization, irregular nuclei, and swollen cells (Xu et al., 2001, J. Biol. Chem., 276:43221-30). […] To test this idea, DU145 cells were pre-treated for 24 h with tAS1411, then added FL-AS1411 and evaluated uptake after an additional 2 h using flow cytometry. […] This idea is not necessarily inconsistent with the time course data shown in FIG. 1A because the fluorescence signal may decrease over time for a number of reasons, including exocytosis of the ligand and fluorescence quenching due to protein binding or environmental factors (the fluorophore used for flow cytometry is particularly sensitive to acidic environments). […]

Substance | temperature dependence of uptake [1] | Cells respond? [2] | Cells respond? [3] | Stimulate MP? [4]
5′-Fluor-d(TTTCCTCCTCCTCCTTCTCCTCCTCCTCC) (DNA TTTCCTCCTCCTCCTTCTCCTCCTCCTCC; DNA, 5' {Fluor}, backbone and methylation of C not given here) [FL-CRO, reference compound] | strong temperature dependence | – | – | –
5′-d(GGTGGTGGTGGTTGTGGTGGTGGTGG) [AS1411] | – | No | No | No

Source: patent US20130065227A1, “METHODS OF INCREASING MACROPINOCYTOSIS IN CANCER CELLS” (priority 2010, published 2013)
